Tests used:
ABCA1 protein = experiment: Detection of upregulation of ABCA1 protein in cells (ApoA-I binding, High Content Image Analysis); format: cell-based; details: THP-1 macrophage cells, 24 hrs with compound
Protocol: Detection of upregulation of ABCA1 protein in cells
The ability of compounds of the invention to increase the level of ABCA1 protein is determined in replicate cultures of THP-1 macrophage cells in 96-well microplates. Cells are plated at an initial density of 100,000 cells/well in 100 μl medium and differentiated to adherent macrophages with the addition of PMA (100 nM) for 68 hrs in 10% fetal bovine serum, 3 μl/L of b-mercaptoethanol, RPMI-1640 medium. Then, cells are incubated with RPMI-1640 medium containing 1% FCS, 25 μg/ml acetylated LDL, for 24 hours at 37° C. Following incubation with acetylated LDL, cells are washed twice with 50 μl PBS and incubated with 100 μl of RPMI-1640 medium containing the compound of interest solubilized in DMSO for an additional 24 hrs. The final DMSO concentration in presence of cells is maintained at 0.5%. ApoA-I binding assay using High Content Image Analysis is initiated by replacing with fresh medium, RPMI without Phenol Red, 0.2% BSA containing AlexaFluor®647 labeled ApoA-I for 2 h/37° C./5% CO2. Then, cells are fixed with 4% Formaldehyde in PBS (15 min, RT). Following Nuclei are stained with Hoechst solution (3 μM PBS) and Cytoplasm with Cell Mask Blue (2 μg/ml PBS), 15 min, RT. Finally the stained cells are fixed with a second round of formaldehyde treatment. Fixed stained cells are washed and kept in PBS at 4° C. and can be read immediately until one month after preparation.
The Alexa Fluor 647-labeled Apolipoprotein A-I (20 nM) was prepared as follows: Human recombinant Apolipoprotein A-I (ApoA-I) was exchanged to a buffer of 0.02 M NaHCO3 at pH 8.2 on an NAP desalting column (GE Healthcare) and brought to a concentration to 40 μM (1.13 mg/ml) by adjustment with the same buffer. The ApoA-I was fluorescently labeled by incubation with Alexa Fluor carboxylic acid succimidyl ester (Alexa Fluor 647, Invitrogen A-20006) at a 2:1 molar ratio (Alexa to ApoA-I) for 1 h under shaking at RT. The remaining unconjugated label was removed by buffer exchange to 0.02M NaHCO3 at pH 8.2.
Imaging and data collection were performed on an OPERA confocal microplate imaging reader using a 20× water immersion objective and UV360 or 405 laser to identify the cell nuclei and a 635 laser to identify the fluorescent ApoA-I. Eight fields of view are captured per well. Image capture and analysis was performed with the Acapella software. Background fluorescence detected in control wells without ApoA-I was subtracted.
Using XLfit3 program (ID Business Solutions Ltd. UK), the model 205 for Dose Response One Site is used to calculate the EC50 values. […] Particularly, the compounds of the present invention have EC50 values in a range of 0.1 μM to 3 μM.

human CB1 receptor = biological target: T1, human CB1 receptor (Homo sapiens, UniProt P21554); experiment: CB1 receptor affinity, displacement of [3H]-CP-55,940; format: binding; details: HEK cell membranes, radioligand [3H]-CP-55,940
T1 construct: expressed in transfected cells; host or cells: human embryonic kidney (HEK) cells, Semliki Forest Virus system, membrane preparation
T1 sequence (P21554 whole entry): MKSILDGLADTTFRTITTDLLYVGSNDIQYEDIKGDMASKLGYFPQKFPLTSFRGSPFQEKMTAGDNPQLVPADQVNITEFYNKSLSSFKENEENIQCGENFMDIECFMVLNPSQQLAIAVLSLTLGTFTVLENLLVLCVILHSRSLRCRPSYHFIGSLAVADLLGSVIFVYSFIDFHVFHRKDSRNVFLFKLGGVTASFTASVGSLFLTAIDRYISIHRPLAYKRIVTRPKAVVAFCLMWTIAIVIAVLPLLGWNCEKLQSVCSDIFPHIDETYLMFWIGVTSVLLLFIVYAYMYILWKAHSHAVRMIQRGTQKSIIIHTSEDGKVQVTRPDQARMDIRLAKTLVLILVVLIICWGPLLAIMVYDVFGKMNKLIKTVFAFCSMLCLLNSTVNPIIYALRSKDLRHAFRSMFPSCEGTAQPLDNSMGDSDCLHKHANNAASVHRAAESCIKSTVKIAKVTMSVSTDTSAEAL
Protocol: (§1) CB1 and CB2 Receptor Affinity
(§2) The affinity of the compounds of the invention for cannabinoid receptors was determined using membrane preparations of human embryonic kidney (HEK) cells in which the human CB1 receptor is transiently transfected using a Semliki Forest Virus system in conjunction with [3H]-CP-55,940 as radioligand. After incubation of freshly prepared cell membrane preparation with the [^3H]-ligand, with or without addition of compounds of the invention, separation of bound and free ligand was performed by filtration over glass fiber filters. Radioactivity on the filter was measured by scintillation counting.
(§3) The ability of the compounds to displace the radioligand [^3H]-CP-55,940 was measured at a concentration of 10 μM and values provided as [% inhibition @10 μM] both for the CB1 and CB2 receptor assay, The lower % inhibition is, the lower the likelihood of side effects based on CB1 or CB2 receptor inhibition is.

human CB2 receptor = biological target: T2, human CB2 receptor (Homo sapiens, UniProt P34972); experiment: CB2 receptor affinity, displacement of [3H]-CP-55,940; format: binding; details: HEK cell membranes, radioligand [3H]-CP-55,940
T2 construct: expressed in transfected cells; host or cells: human embryonic kidney (HEK) cells, Semliki Forest Virus system, membrane preparation
T2 sequence (P34972 whole entry): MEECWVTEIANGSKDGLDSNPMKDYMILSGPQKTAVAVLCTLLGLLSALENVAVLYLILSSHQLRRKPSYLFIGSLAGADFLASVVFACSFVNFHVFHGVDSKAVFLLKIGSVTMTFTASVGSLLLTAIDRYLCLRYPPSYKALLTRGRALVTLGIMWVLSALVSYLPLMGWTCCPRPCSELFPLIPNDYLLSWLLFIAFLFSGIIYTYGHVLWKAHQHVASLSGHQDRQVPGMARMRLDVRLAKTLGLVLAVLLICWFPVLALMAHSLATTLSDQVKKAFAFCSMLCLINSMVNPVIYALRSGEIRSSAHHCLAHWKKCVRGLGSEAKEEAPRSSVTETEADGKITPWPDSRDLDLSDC
Protocol: as §1
as §2, with “cannabinoid CB2” for “cannabinoid”, “CB2” for “CB1”, “[^3H]-CP-55,940” for “[3H]-CP-55,940”
as §3

| inhibition at 10 µM (human CB1 receptor) | inhibition at 10 µM (human CB2 receptor) | SMILES | % increase of ABCA1 at 3 μM (ABCA1 protein) |
| --- | --- | --- | --- |
| 19% | -13% | COc1cncc(C(=O)Nc2cnc(OCC(F)(F)F)c(C3CCCCC3)c2)c1 [Example 12, N-[5-cyclohexyl-6-(2,2,2-trifluoro-ethoxy)-pyridin-3-yl]-5-methoxy-nicotinamide] | >45% @ 3 μM |
| 13% | -8% | Cc1ocnc1C(=O)Nc1cnc(OCC(F)(F)F)c(C2CCCCC2)c1 [Example 10, 5-methyl-oxazole-4-carboxylic acid [5-cyclohexyl-6-(2,2,2-trifluoro-ethoxy)-pyridin-3-yl]-amide] | >45% @ 3 μM |
| 33% | 3% | O=C(Nc1cnc(OCC(F)(F)F)c(C2CCCCC2)c1)c1ccccn1 [Example 11, pyridine-2-carboxylic acid [5-cyclohexyl-6-(2,2,2-trifluoro-ethoxy)-pyridin-3-yl]-amide] | >45% @ 3 μM |
| 38% | -13% | O=C(Nc1cnc(OCC(F)(F)F)c(C2CCCCC2)c1)c1ccccc1 [Example 13, N-[5-cyclohexyl-6-(2,2,2-trifluoro-ethoxy)-pyridin-3-yl]-benzamide] | >45% @ 3 μM |

Further lines, the compound ahead of its results:

| SMILES | inhibition at 10 µM (human CB1 receptor) | inhibition at 10 µM (human CB2 receptor) | % increase of ABCA1 at 3 μM (ABCA1 protein) |
| --- | --- | --- | --- |
| O=C(Nc1cnc(OCC(F)(F)F)c(C2CCCCC2)c1)c1cccnc1 [Example 8, N-[5-cyclohexyl-6-(2,2,2-trifluoro-ethoxy)-pyridin-3-yl]-nicotinamide] | 28% | -13% | >45% @ 3 μM |
| Cc1cc(C(=O)Nc2cnc(OCC(F)(F)F)c(C3CCCC3)c2)[nH]n1 [Example 2, 5-methyl-2H-pyrazole-3-carboxylic acid [5-cyclopentyl-6-(2,2,2-trifluoro-ethoxy)-pyridin-3-yl]-amide] | 22% | -12% | >45% @ 3 μM |
| Cc1cc(C(=O)Nc2cnc(OCC(F)(F)F)c(C3CCCCC3)c2)[nH]n1 [Example 9, 5-methyl-2H-pyrazole-3-carboxylic acid [5-cyclohexyl-6-(2,2,2-trifluoro-ethoxy)-pyridin-3-yl]-amide] | 27% | -9% | >45% @ 3 μM |
| O=C(Nc1cnc(OCC(F)(F)F)c(C2CCCC2)c1)c1cccnc1 [Example 4, N-[5-cyclopentyl-6-(2,2,2-trifluoro-ethoxy)-pyridin-3-yl]-nicotinamide] | 34% | 2% | >45% @ 3 μM |
| O=C(Nc1cnc(OCC(F)(F)F)c(C2CCCC2)c1)c1ccccc1 [Example 6, N-[5-cyclopentyl-6-(2,2,2-trifluoro-ethoxy)-pyridin-3-yl]-benzamide] | 40% | -5% | >45% @ 3 μM |
| Cc1ocnc1C(=O)Nc1cnc(OCC(F)(F)F)c(C2CCCC2)c1 [Example 3, 5-methyl-oxazole-4-carboxylic acid [5-cyclopentyl-6-(2,2,2-trifluoro-ethoxy)-pyridin-3-yl]-amide] | 26% | 0% | >45% @ 3 μM |
| O=C(Nc1cnc(OCC(F)(F)F)c(C2CCCC2)c1)c1ccccn1 [Example 5, pyridine-2-carboxylic acid [5-cyclopentyl-6-(2,2,2-trifluoro-ethoxy)-pyridin-3-yl]-amide] | 28% | -8% | >45% @ 3 μM |
| O=C(Nc1cnc(OCC(F)(F)F)c(C2CCCC2)c1)c1cncnc1 [Example 7, pyrimidine-5-carboxylic acid [5-cyclopentyl-6-(2,2,2-trifluoro-ethoxy)-pyridin-3-yl]-amide] | 21% | -12% | >45% @ 3 μM |
| COc1cncc(C(=O)Nc2cnc(OCC(F)(F)F)c(C3CCCC3)c2)c1 [Example 1, N-[5-cyclopentyl-6-(2,2,2-trifluoro-ethoxy)-pyridin-3-yl]-5-methoxy-nicotinamide] | 4% | -9% | >45% @ 3 μM |
